Test: an = ratio of the nth substance listed
Settings: 100 kPa, Liquid, Buoyancy - hydrostatic balance, a2 = 1.3

[F][Al]([F])[F] [aluminum fluoride] + [F-].[K+]
Settings	mass density [kg/m3]
953.37 K	1875
953.87 K	1875
954.03 K	1875
954.2 K	1874
954.52 K	1874
954.85 K	1873
955.23 K	1873
955.66 K	1873
955.95 K	1873
956.45 K	1873
957 K	1872
957.09 K	1872
957.11 K	1872
957.15 K	1872
957.8 K	1871
958.17 K	1871
958.39 K	1870
958.54 K	1870
958.92 K	1870
959.36 K	1870
959.42 K	1870
959.67 K	1870
960.14 K	1869
960.36 K	1869
961.06 K	1868
961.27 K	1868
961.32 K	1868
961.88 K	1868
961.97 K	1868
962.58 K	1867
962.79 K	1866
962.82 K	1867
963.09 K	1867
963.44 K	1866
963.53 K	1866
964.23 K	1865
964.32 K	1865
964.85 K	1865
965.05 K	1865
965.38 K	1865
965.94 K	1864
966 K	1864
966.18 K	1864
966.56 K	1864
966.7 K	1863
967.24 K	1863
967.73 K	1862
967.75 K	1862
968.06 K	1862
968.94 K	1862
968.96 K	1862
969.15 K	1861
969.33 K	1861
969.99 K	1861
970.3 K	1861
970.44 K	1860
970.89 K	1860
970.98 K	1859
971.14 K	1860
971.87 K	1859
972.13 K	1859
972.25 K	1859
972.6 K	1859
972.98 K	1858
973.21 K	1858
973.66 K	1858
973.77 K	1858
973.95 K	1857
974.37 K	1857
974.77 K	1857
975.15 K	1856
975.67 K	1856
975.77 K	1856
975.97 K	1856
976.61 K	1855
976.86 K	1855
976.9 K	1855
977.25 K	1854
977.4 K	1854
977.66 K	1852
978.13 K	1852
978.34 K	1852
978.99 K	1852
979.14 K	1851
979.65 K	1850
979.83 K	1851
980.46 K	1850
980.58 K	1850
980.92 K	1850
980.95 K	1850
981.3 K	1849
981.38 K	1849
982.18 K	1849
982.5 K	1849
982.75 K	1848
983.17 K	1848
983.33 K	1847
983.99 K	1847
984.08 K	1847
984.17 K	1847
984.63 K	1846
985 K	1846
985.5 K	1846
985.61 K	1846
986.09 K	1845
986.53 K	1845
986.96 K	1845
987.09 K	1845
987.31 K	1844
987.8 K	1844
988.08 K	1844
988.26 K	1844
988.64 K	1843
988.78 K	1844
989.33 K	1843
989.41 K	1843
990.26 K	1842
990.32 K	1842
